Assay results reported in patent US20260000642A1 (Tay Therapeutics Limited, priority 2022, published 2026).
Values joined by “and” are separate entries in the source; they are usually repeats but may differ in a detail not shown here. Equal values may be shown once.

System: collagen-induced arthritis in Lewis rats
Assay: Collagen-induced arthritis (CIA) model in rats: body weight, paw volume, clinical scores, clinical observations; as to Detailed Clinical Scores, left forelimb: key of the grades not given here; as to Detailed Clinical Scores, left hind limb: key of the grades not given here; as to Detailed Clinical Scores, right forelimb: key of the grades not given here; as to Detailed Clinical Scores, right hind limb: key of the grades not given here; as to Detailed Clinical Scores, score: key of the grades not given here
Details: for Detailed Clinical Scores, left forelimb / Detailed Clinical Scores, left hind limb / Detailed Clinical Scores, right forelimb / Detailed Clinical Scores, right hind limb / Detailed Clinical Scores, score: CIA, per animal ID
[1] = CIA rats, 10 mg/kg, individual animals
[2] = CIA rats, 30 mg/kg, individual animals
[3] = CIA rats, 3 mg/kg twice daily for 21 days
[4] = CIA rats, 30 mg/kg twice daily for 21 days

Structure (SMILES): CNC(=O)c1[nH]c(C(=O)NC2CCC2)cc1O[C@@H](C)c1ccccc1 [Example 101, N^5-cyclobutyl-N^2-methyl-3-(1-phenylethoxy)-1H-pyrrole-2,5-dicarboxamide]
- amelioration of clinical symptoms associated with CIA (3 mg/kg, 10 mg/kg and 30 mg/kg twice daily): dose-dependent effect
- Clinical Observation Day 15 [1]: Diarrhea
- Clinical Observation Day 19 [1]: Diarrhea
- Clinical Observation Day 12 [2]: Diarrhea
- Clinical Observation Day 13 [2]: Diarrhea
- Clinical Observation Day 16 [2]: Diarrhea
- Clinical Observation Day 18 [2]: Diarrhea
- Clinical Observation Day 19 [2]: Diarrhea
- Clinical Observation Day 21 [2]: Diarrhea
- diarrhea over the 21-day period (CIA rats, 3 mg/kg twice daily): did not have diarrhea
- effect on hind paw volume relative to CIA + vehicle (group 2) [3]: less effective at preventing an increase in paw volume
- increase in body weight, day 21 compared to day 0 [3]: 1.7%
- animals that gained weight by the end of the study (of 8) (CIA rats, 3 mg/kg twice daily for 21 days (group 5)): 7/8
- animals showing signs of disease (of 8) (CIA rats, 3 mg/kg twice daily, day 12): Three animals
- animals showing signs of disease (of 8) (CIA rats, 3 mg/kg twice daily, day 14): all animals
- diarrhea over the 21-day period (CIA rats, 10 mg/kg twice daily (group 6)): Two different animals
- weight change, day 21 compared to day 0 (CIA rats, 10 mg/kg twice daily for 21 days): approximately 0.5%
- animals that gained weight by the end of the study (of 8) (CIA rats, 10 mg/kg twice daily for 21 days (group 6)): 3/8
- effect on hind paw volume relative to CIA + vehicle (group 2) (CIA rats, 10 mg/kg twice daily for 21 days, both paws, p<0.05): significantly decreased relative to group 2 on days 19 and 21
- animals showing signs of disease (of 8) (CIA rats, 10 mg/kg twice daily, day 19): all animals
- diarrhea over the 21-day period (CIA rats, 30 mg/kg twice daily (group 7)): Four different animals
- effect on hind paw volume relative to CIA + vehicle (group 2) [4]: most effective dose at preventing an increase in paw volume
- weight change, day 21 compared to day 0 [4]: approximately 0.5%
- animals that gained weight by the end of the study (of 8) (CIA rats, 30 mg/kg twice daily for 21 days (group 7)): 3/8
- animals showing signs of disease (of 8) (CIA rats, 30 mg/kg twice daily, day 12): One animal
- hind paw volume increase at plateau relative to day 0 (CIA rats, 30 mg/kg twice daily, increase from around day 19): approximately 35%
- Detailed Clinical Scores, left forelimb (Day 0, 3 mg/kg): 0
- Detailed Clinical Scores, left hind limb (Day 0, 3 mg/kg): 0
- Detailed Clinical Scores, right forelimb (Day 0, 3 mg/kg): 0
- Detailed Clinical Scores, right hind limb (Day 0, 3 mg/kg): 0
- Detailed Clinical Scores, score (Day 0, 3 mg/kg): 0
- Detailed Clinical Scores, left forelimb (Day 0, 10 mg/kg): 0
- Detailed Clinical Scores, left hind limb (Day 0, 10 mg/kg): 0
- Detailed Clinical Scores, right forelimb (Day 0, 10 mg/kg): 0
- Detailed Clinical Scores, right hind limb (Day 0, 10 mg/kg): 0
- Detailed Clinical Scores, score (Day 0, 10 mg/kg): 0
- Detailed Clinical Scores, left forelimb (Day 0, 30 mg/kg): 0
- Detailed Clinical Scores, left hind limb (Day 0, 30 mg/kg): 0
- Detailed Clinical Scores, right forelimb (Day 0, 30 mg/kg): 0
- Detailed Clinical Scores, right hind limb (Day 0, 30 mg/kg): 0
- Detailed Clinical Scores, score (Day 0, 30 mg/kg): 0
- Average animal body weight percent change (Day 0, CIA + 3 mg/kg): 0.00%
- Mean animal body weight (Day 0, CIA + 3 mg/kg): 165 g
- Average animal body weight percent change (Day 0, CIA + 10 mg/kg): 0.00%
- Mean animal body weight (Day 0, CIA + 10 mg/kg): 162 g
- Average animal body weight percent change (Day 0, CIA + 30 mg/kg): 0.00%
- Mean animal body weight (Day 0, CIA + 30 mg/kg): 162 g
- Average animal body weight percent change (Day 1, CIA + 3 mg/kg): −0.49%
- Mean animal body weight (Day 1, CIA + 3 mg/kg): 164 g
- Average animal body weight percent change (Day 1, CIA + 10 mg/kg): −1.45%
- Mean animal body weight (Day 1, CIA + 10 mg/kg): 160 g
- Average animal body weight percent change (Day 1, CIA + 30 mg/kg): −0.83%
- Mean animal body weight (Day 1, CIA + 30 mg/kg): 161 g
- Average animal body weight percent change (Day 2, CIA + 3 mg/kg): −0.15%
- Mean animal body weight (Day 2, CIA + 3 mg/kg): 165 g
- Average animal body weight percent change (Day 2, CIA + 10 mg/kg): −1.29%
- Mean animal body weight (Day 2, CIA + 10 mg/kg): 160 g
- Average animal body weight percent change (Day 2, CIA + 30 mg/kg): −1.03%
- Mean animal body weight (Day 2, CIA + 30 mg/kg): 160 g
- Average animal body weight percent change (Day 3, CIA + 3 mg/kg): 1.01%
- Mean animal body weight (Day 3, CIA + 3 mg/kg): 167 g
- Average animal body weight percent change (Day 3, CIA + 10 mg/kg): 0.91%
- Mean animal body weight (Day 3, CIA + 10 mg/kg): 164 g
- Average animal body weight percent change (Day 3, CIA + 30 mg/kg): −1.32%
- Mean animal body weight (Day 3, CIA + 30 mg/kg): 160 g
- Average animal body weight percent change (Day 4, CIA + 3 mg/kg): 0.94%
- Mean animal body weight (Day 4, CIA + 3 mg/kg): 166 g
- Average animal body weight percent change (Day 4, CIA + 10 mg/kg): 0.99%
- Mean animal body weight (Day 4, CIA + 10 mg/kg): 164 g
- Average animal body weight percent change (Day 4, CIA + 30 mg/kg): 0.47%
- Mean animal body weight (Day 4, CIA + 30 mg/kg): 163 g
- Average animal body weight percent change (Day 5, CIA + 3 mg/kg): 1.81%
- Mean animal body weight (Day 5, CIA + 3 mg/kg): 168 g
- Average animal body weight percent change (Day 5, CIA + 10 mg/kg): 1.43%
- Mean animal body weight (Day 5, CIA + 10 mg/kg): 165 g
- Average animal body weight percent change (Day 5, CIA + 30 mg/kg): 0.90%
- Mean animal body weight (Day 5, CIA + 30 mg/kg): 163 g
- Detailed Clinical Scores, left forelimb (Day 6, 3 mg/kg): 0
- Detailed Clinical Scores, right forelimb (Day 6, 3 mg/kg): 0
- Detailed Clinical Scores, right hind limb (Day 6, 3 mg/kg): 0
- Detailed Clinical Scores, left forelimb (Day 6, 10 mg/kg): 0
- Detailed Clinical Scores, left hind limb (Day 6, 10 mg/kg): 0
- Detailed Clinical Scores, right forelimb (Day 6, 10 mg/kg): 0
- Detailed Clinical Scores, right hind limb (Day 6, 10 mg/kg): 0
- Detailed Clinical Scores, score (Day 6, 10 mg/kg): 0
- Detailed Clinical Scores, left forelimb (Day 6, 30 mg/kg): 0
- Detailed Clinical Scores, left hind limb (Day 6, 30 mg/kg): 0
- Detailed Clinical Scores, right forelimb (Day 6, 30 mg/kg): 0
- Detailed Clinical Scores, right hind limb (Day 6, 30 mg/kg): 0
- Detailed Clinical Scores, score (Day 6, 30 mg/kg): 0
- Average animal body weight percent change (Day 6, CIA + 3 mg/kg): 3.40%
- Mean animal body weight (Day 6, CIA + 3 mg/kg): 171 g
- Average animal body weight percent change (Day 6, CIA + 10 mg/kg): 1.77%
- Mean animal body weight (Day 6, CIA + 10 mg/kg): 165 g
- Average animal body weight percent change (Day 6, CIA + 30 mg/kg): 0.03%
- Mean animal body weight (Day 6, CIA + 30 mg/kg): 162 g
- Average animal body weight percent change (Day 7, CIA + 3 mg/kg): 4.80%
- Mean animal body weight (Day 7, CIA + 3 mg/kg): 173 g
- Average animal body weight percent change (Day 7, CIA + 10 mg/kg): 2.23%
- Mean animal body weight (Day 7, CIA + 10 mg/kg): 166 g
- Average animal body weight percent change (Day 7, CIA + 30 mg/kg): 0.29%
- Mean animal body weight (Day 7, CIA + 30 mg/kg): 162 g
- Average animal body weight percent change (Day 8, CIA + 3 mg/kg): 4.69%
- Mean animal body weight (Day 8, CIA + 3 mg/kg): 173 g
- Average animal body weight percent change (Day 8, CIA + 10 mg/kg): 2.82%
- Mean animal body weight (Day 8, CIA + 10 mg/kg): 167 g
- Average animal body weight percent change (Day 8, CIA + 30 mg/kg): 1.21%
- Mean animal body weight (Day 8, CIA + 30 mg/kg): 164 g
- Average animal body weight percent change (Day 9, CIA + 3 mg/kg): 5.59%
- Mean animal body weight (Day 9, CIA + 3 mg/kg): 174 g
- Average animal body weight percent change (Day 9, CIA + 10 mg/kg): 4.86%
- Mean animal body weight (Day 9, CIA + 10 mg/kg): 170 g
- Average animal body weight percent change (Day 9, CIA + 30 mg/kg): 2.81%
- Mean animal body weight (Day 9, CIA + 30 mg/kg): 166 g
- Average animal body weight percent change (Day 10, CIA + 3 mg/kg): 6.84%
- Mean animal body weight (Day 10, CIA + 3 mg/kg): 176 g
- Average animal body weight percent change (Day 10, CIA + 10 mg/kg): 4.86%
- Mean animal body weight (Day 10, CIA + 10 mg/kg): 170 g
- Average animal body weight percent change (Day 10, CIA + 30 mg/kg): 2.27%
- Mean animal body weight (Day 10, CIA + 30 mg/kg): 166 g
- Average animal body weight percent change (Day 11, CIA + 3 mg/kg): 7.79%
- Mean animal body weight (Day 11, CIA + 3 mg/kg): 178 g
- Average animal body weight percent change (Day 11, CIA + 10 mg/kg): 5.09%
- Mean animal body weight (Day 11, CIA + 10 mg/kg): 171 g
- Average animal body weight percent change (Day 11, CIA + 30 mg/kg): 2.22%
- Mean animal body weight (Day 11, CIA + 30 mg/kg): 165 g
- Detailed Clinical Scores, left forelimb (Day 12, 3 mg/kg): 0
- Detailed Clinical Scores, left hind limb (Day 12, 3 mg/kg, 3 mg/kg): 1
- Detailed Clinical Scores, right forelimb (Day 12, 3 mg/kg, 3 mg/kg): 0 (6×) and 1 (2×)
- Detailed Clinical Scores, left forelimb (Day 12, 10 mg/kg): 0
- Detailed Clinical Scores, right forelimb (Day 12, 10 mg/kg): 0
- Detailed Clinical Scores, left hind limb (Day 12, 10 mg/kg, 10 mg/kg): 1 (2×) and 0 (2×)
- Detailed Clinical Scores, right hind limb (Day 12, 10 mg/kg, 10 mg/kg): 2 and 0 (2×)
- Detailed Clinical Scores, score (Day 12, 10 mg/kg, 10 mg/kg): 1 (2×) and 2 and 0
- Detailed Clinical Scores, left forelimb (Day 12, 30 mg/kg): 0
- Detailed Clinical Scores, left hind limb (Day 12, 30 mg/kg): 0
- Detailed Clinical Scores, right forelimb (Day 12, 30 mg/kg): 0
- Detailed Clinical Scores, right hind limb (Day 12, 30 mg/kg, 30 mg/kg): 1 and 0 (5×)
- Detailed Clinical Scores, score (Day 12, 30 mg/kg, 30 mg/kg): 1 and 0 (4×)
- Average animal body weight percent change (Day 12, CIA + 3 mg/kg): 8.18%
- Mean animal body weight (Day 12, CIA + 3 mg/kg): 178 g
- Average animal body weight percent change (Day 12, CIA + 10 mg/kg): 4.18%
- Mean animal body weight (Day 12, CIA + 10 mg/kg): 169 g
